# What was measured:
# [1] = system: BLT1-expressing cells [BLT1이 발현된 세포 (CHO-BLT1)]; assay: LTB4-induced chemotactic motility (Transwell), CHO-BLT1; type: cell-based
# [2] = system: BLT2-expressing cells [BLT2가 발현된 세포 (CHO-BLT2 cells)]; assay: LTB4-induced BLT2-dependent chemotactic motility (Transwell), CHO-BLT2; type: cell-based, human; settings: for inhibition of chemotaxis: LTB4-stimulated CHO-BLT2 cells, result in words; for IC50: read-out: IC50 (50% inhibitory concentration), chemotaxis, CHO-BLT2 cells, LTB4-induced, serum-free; for inhibition at 10 µM: 10 μM pretreatment, compared with LTB4 (300 nM) treatment (DMSO+), read-out: chemotaxis inhibition
# [3] = system: BLT2-expressing cells [BLT2가 발현된 세포 (CHO-BLT2 cells)]; assay: LPA-induced chemotactic motility (Transwell), CHO-BLT2; type: cell-based, human
# [4] = system: BLT2-expressing cells [BLT2가 발현된 세포 (CHO-BLT2 cells)]; assay: Growth inhibition of BLT2-expressing cells (MTT cell viability); type: cell-based; settings: for inhibition at 10 µM: 10 μM pretreatment 1 h, then LTB4 300 nM, 24 h, read-out: growth inhibition effect; for inhibition of BLT2-induced cell proliferation: 10 μM, LTB4 300 nM, result in words
# [5] = system: cigarette smoke and lipopolysaccharide induced chronic obstructive pulmonary disease animal model [담배연기 및 지질다당류로 유발된 만성 폐쇄성 폐질환 동물 모델]; assay: H&E staining of lung tissue, cigarette smoke and LPS induced COPD mice; type: in vivo, mouse; settings: C57BL/6N mice; for improvement of lung inflammation: cigarette smoke + LPS COPD model, overall result in words; for infiltration of inflammatory cells (H&E): cigarette smoke + LPS, 10 or 20 mg/kg oral, lung tissue, compared with COPD group, result in words
# [6] = system: reactive oxygen species (ROS); assay: ROS measurement in BALF, cigarette smoke and LPS induced COPD mice; type: in vivo, mouse; settings: C57BL/6N mice, oral 1 h before smoke, result in words
# IL-6 = IL-6 measurement in BALF, cigarette smoke and LPS induced COPD mice; type: in vivo, mouse; settings: C57BL/6N mice, oral 1 h before smoke, result in words
# [7] = system: inflammatory cells (neutrophils) [염증세포(호중구)]; assay: Inflammatory cell infiltration in BALF, cigarette smoke and LPS induced COPD mice; type: in vivo, mouse; settings: C57BL/6N mice, oral 1 h before smoke, result in words
# neutrophil elastase (NE) = assay: NE measurement in BALF, cigarette smoke and LPS induced COPD mice; type: in vivo, mouse; settings: C57BL/6N mice, oral 1 h before smoke, result in words
# TNF-α = TNF-α measurement in BALF, cigarette smoke and LPS induced COPD mice; type: in vivo, mouse; settings: C57BL/6N mice, oral 1 h before smoke, result in words
# [8] = 10 μM pretreatment, compared with LTB4 (10 nM) treatment (DMSO+), result in words
compound,measurement,setting,value
"CCCCC(=O)N(Cc1ccc(-c2ccc(OCC(=O)O)cc2)cc1)c1cccc(F)c1 [AC-1074, 2-(4'-((N-(3-fluorophenyl)pentanamido)methyl)biphenyl-4-yloxy)acetic acid]",change in chemotaxis,[1]; [8],변화가 없음
same,inhibition of chemotaxis,[2],현저히 저해
same,change in chemotaxis,"[3]; 10 μM pretreatment, compared with LPA (100 nM) treatment (DMSO+), result in words",변화가 없음
"CCCCC(=O)N(Cc1ccc(-c2ccc(O)cc2)cc1)c1cccc(Br)c1 [AC-1632, N-(3-bromophenyl)-N-((4'-hydroxybiphenyl-4-yl)methyl)pentanamide]",inhibition at 10 µM,[4],78.7%
same,inhibition of BLT2-induced cell proliferation,[4],매우 우수한 효율로 억제
"CCCCC(=O)N(Cc1ccc(-c2ccc(O)cc2)cc1)c1cccc(C(F)(F)F)c1 [AC-1635, N-((4'-hydroxybiphenyl-4-yl)methyl)-N-(3-(trifluoromethyl)phenyl)pentanamide]",inhibition at 10 µM,[4],71.6%
same,inhibition of BLT2-induced cell proliferation,[4],매우 우수한 효율로 억제
"COc1ccc(-c2ccc(CN(C(C)=O)c3cccc(F)c3)cc2)cc1 [AC-1646, N-(3-fluorophenyl)-N-((4'-methoxybiphenyl-4-yl)methyl)acetamide]",inhibition at 10 µM,[4],72.1%
same,inhibition of BLT2-induced cell proliferation,[4],매우 우수한 효율로 억제
"CCCCC(=O)N(Cc1ccc(-c2ccc(C(=O)N3CCN(C(C)C)CC3)cc2)cc1)c1ccc(F)cc1 [AC-1650, N-(4-fluorophenyl)-N-((4'-(4-isopropylpiperazine-1-carbonyl)biphenyl-4-yl)methyl)pentanamide]",inhibition at 10 µM,[4],82.2%
same,inhibition of BLT2-induced cell proliferation,[4],매우 우수한 효율로 억제
"CCCCC(=O)N(CC#Cc1ccc(C(=O)N2CCN(C)CC2)cc1)c1ccccc1 [LMT-692, N-(3-(4-(4-methylpiperazine-1-carbonyl)phenyl)prop-2-ynyl)-N-phenylpentanamide]",chemotaxis inhibition,[1]; [8],억제되지 않음
same,IC50,[2]; Homo sapiens,7570 nM
same,inhibition at 10 µM,[2]; Homo sapiens,66%
same,inhibition of chemotaxis,[2],현저히 저해
same,inhibition of BLT2-induced cell proliferation,[4],매우 우수한 효율로 억제
"CCCCC(=O)N(CC#Cc1ccc(C(=O)N2CCNCC2)cc1)c1ccccc1 [LMT-694, N-phenyl-N-(3-(4-(piperazine-1-carbonyl)phenyl)prop-2-ynyl)pentanamide]",chemotaxis inhibition,[1]; [8],억제되지 않음
same,inhibition at 10 µM,[2]; Homo sapiens,90%
"CCCCC(=O)N(CC#Cc1ccc(C(=O)N2CCN(C(C)C)CC2)cc1)c1ccccc1 [LMT-696, N-(3-(4-(4-isopropylpiperazine-1-carbonyl)phenyl)prop-2-ynyl)-N-phenylpentanamide]",chemotaxis inhibition,[1]; [8],억제되지 않음
same,IC50,[2]; Homo sapiens,2000 nM
same,inhibition at 10 µM,[2]; Homo sapiens,70.3%
same,inhibition of chemotaxis,[2],현저히 저해
same,inhibition of BLT2-induced cell proliferation,[4],매우 우수한 효율로 억제
"CCCCC(=O)N(CC#Cc1cccc(C(=O)N2CCNCC2)c1)c1ccccc1 [LMT-837, N-phenyl-N-(3-(3-(piperazine-1-carbonyl)phenyl)prop-2-ynyl)pentanamide]",inhibition at 10 µM,[4],65%
same,inhibition of BLT2-induced cell proliferation,[4],매우 우수한 효율로 억제
"CCCCC(=O)N(CC#Cc1ccc(C(=O)N2CCN(C(C)C)CC2)cc1)c1ccc(F)cc1 [LMT-841, N-(4-fluorophenyl)-N-(3-(4-(4-isopropylpiperazine-1-carbonyl)phenyl)prop-2-ynyl)pentanamide]",inhibition at 10 µM,[4],60%
same,inhibition of BLT2-induced cell proliferation,[4],매우 우수한 효율로 억제
"CCCCC(=O)N(CC#Cc1cccc(C(=O)N2CCN(C(C)C)CC2)c1)c1ccccc1 [LMT-842, N-(3-(3-(4-isopropylpiperazine-1-carbonyl)phenyl)prop-2-ynyl)-N-phenylpentanamide]",inhibition at 10 µM,[4],70%
same,inhibition of BLT2-induced cell proliferation,[4],매우 우수한 효율로 억제
"CCCCC(=O)N(CC#Cc1ccc(C(=O)N(CC)CC)cc1)c1ccccc1 [LMT-883, N,N-diethyl-4-(3-(N-phenylpentanamido)prop-1-ynyl)benzamide]",inhibition at 10 µM,[4],99%
same,inhibition of BLT2-induced cell proliferation,[4],매우 우수한 효율로 억제
"CCCCC(=O)N(CC#Cc1ccc(C(=O)N2CCN(C(C)C)CC2)cc1)c1cccc(F)c1 [LMT-886, N-(3-fluorophenyl)-N-(3-(4-(4-isopropylpiperazine-1-carbonyl)phenyl)prop-2-ynyl)pentanamide]",improvement of lung inflammation,[5],폐의 염증을 개선하는 효능
same,infiltration of inflammatory cells (H&E),[5],감소
same,ROS production,[6],유의적으로 감소
same,IL-6 production,IL-6,현저히 감소
same,infiltration of inflammatory cells (neutrophils),[7],유의적으로 감소
same,inhibition at 10 µM,[4],99%
same,inhibition of BLT2-induced cell proliferation,[4],매우 우수한 효율로 억제
same,NE production,neutrophil elastase (NE),유의적으로 감소
same,TNF-α production,TNF-α,현저히 감소
"CCCCC(=O)N(CC#Cc1ccc(C(=O)O)cc1)c1ccccc1 [LMT-1013, 4-(3-(N-phenylpentanamido)prop-1-yn-1-yl)benzoic acid]",IC50,"[1]; read-out: IC50 (50% inhibitory concentration), chemotaxis, CHO-BLT1 cells, LTB4-induced, serum-free",≥ 10000 nM
same,improvement of lung inflammation,[5],폐의 염증을 개선하는 효능
same,infiltration of inflammatory cells (H&E),[5],감소
same,ROS production,[6],유의적으로 감소
same,IL-6 production,IL-6,현저히 감소
same,IC50,[2]; Homo sapiens,62.4 nM
same,inhibition of chemotaxis,[2],현저히 저해
same,infiltration of inflammatory cells (neutrophils),[7],유의적으로 감소
same,inhibition of BLT2-induced cell proliferation,[4],매우 우수한 효율로 억제
same,NE production,neutrophil elastase (NE),유의적으로 감소
same,TNF-α production,TNF-α,현저히 감소
"CCCCC(=O)N(CC#Cc1ccc(C(=O)NCCN(C)C)cc1)c1ccccc1 [LMT-1016, N-(2-(dimethylamino)ethyl)-4-(3-(N-phenylpentanamido)prop-1-yn-1-yl)benzamide]",inhibition at 10 µM,[4],99%
same,inhibition of BLT2-induced cell proliferation,[4],매우 우수한 효율로 억제
"CCCCC(=O)N(CC#Cc1ccc(C(=O)NC(C)C(=O)OC)cc1)c1ccccc1 (centres unmarked) [LMT-1018, methyl 2-(4-(3-(N-phenylpentanamido)prop-1-yn-1-yl)benzamido)propanoate]",inhibition at 10 µM,[4],71.6%
same,inhibition of BLT2-induced cell proliferation,[4],매우 우수한 효율로 억제
"CCCCC(=O)N(CC#Cc1ccc(C(=O)NC(C)C(=O)O)cc1)c1ccccc1 (centres unmarked) [LMT-1019, 2-(4-(3-(N-phenylpentanamido)prop-1-yn-1-yl)benzamido)propanoic acid]",inhibition at 10 µM,[4],99%
same,inhibition of BLT2-induced cell proliferation,[4],매우 우수한 효율로 억제
"CCCCCCCC/C=C\CCCCCCCC(=O)OC[C@@H](O)COP(=O)(O)O [LPA, lysophosphatidic acid, reference compound]",fold induction at 0.1 µM,"[3]; Homo sapiens, 3 h, LPA 100 nM (DMSO+) compared with ethanol (DMSO-), read-out: increase in cell chemotaxis",3.4
"CCCCC/C=C\C[C@@H](O)/C=C/C=C/C=C\[C@@H](O)CCCC(=O)O [LTB4, Leukotriene B4, reference compound]",fold induction at 0.01 µM,"[1]; 3 h, LTB4 10 nM (DMSO+) compared with ethanol (DMSO-), read-out: increase in cell chemotaxis",2.2
same,increase in cell chemotaxis,"[1]; cho-blt1 cells, 3 h, 0.01 µM",2.8 fold
same,fold induction at 0.3 µM,"[2]; Homo sapiens, 3 h, LTB4 300 nM (DMSO+) compared with ethanol (DMSO-), read-out: increase in cell chemotaxis",2.4
same,increase in cell chemotaxis,"[2]; LTB4 300 nM (DMSO+) compared with ethanol (DMSO-), 180 min, 0.3 µM",2.9 fold

# From KR20180087157A, “Blt 저해 활성을 갖는 화합물을 유효성분으로 포함하는 만성 폐쇄성 폐질환 예방 또는 치료용 약학적 조성물” (동국대학교 산학협력단, priority 2017, dated 2018)
